Measurements: the supplement of paper PMC10307832

Columns and labels:
Test in all cases: relative viability (nuclei count vs DMSO), 5 days (fraction); higher = more cells survive
A-427 = tested on: A-427
Summary of the method: (§1)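 For relative viability, nuclei counts in treated wells were divided by those in vehicle wells. Lung cancer cell lines had been pin-tool dosed in 1536-well plates the day after seeding and cultured for 5 days, then fixed and stained in one step (final 0.05% Triton X-100, 1% formaldehyde, 1 ug/ml Hoechst) and imaged at 4×. Doses were one drug alone or a fixed anchor-drug dose plus five library-drug doses (not always all listed) in √10 steps, and values are duplicate-plate medians.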

NCI-H1975 = tested on: NCI-H1975
Summary of the method: as §1

NCI-H1563 = tested on: NCI-H1563
Summary of the method: as §1

NCI-H1755 = tested on: NCI-H1755
Summary of the method: as §1

NCI-H520 = tested on: NCI-H520
Summary of the method: as §1

ChaGo-K-1 = tested on: ChaGo-K-1
Summary of the method: as §1

NCI-H1734 = tested on: NCI-H1734
Summary of the method: as §1

NCI-H2170 = tested on: NCI-H2170
Summary of the method: as §1

NCI-H23 = tested on: NCI-H23
Summary of the method: as §1

NCI-H1666 = tested on: NCI-H1666
Summary of the method: as §1

EKVX = tested on: EKVX
Summary of the method: as §1

EMC-BAC-2 = tested on: EMC-BAC-2
Summary of the method: as §1

PC-3 [JPC-3] = tested on: PC-3 [JPC-3]
Summary of the method: as §1

SK-MES-1 = tested on: SK-MES-1
Summary of the method: as §1

LK-2 = tested on: LK-2
Summary of the method: as §1

NCI-H441 = tested on: NCI-H441
Summary of the method: as §1

SW 900 = tested on: SW 900
Summary of the method: as §1

NCI-H1792 = tested on: NCI-H1792
Summary of the method: as §1

LOU-NH91 = tested on: LOU-NH91
Summary of the method: as §1

COR-L 105 = tested on: COR-L 105
Summary of the method: as §1

NCI-H596 = tested on: NCI-H596
Summary of the method: as §1

H3255 = tested on: H3255
Summary of the method: as §1

NC(=O)Nc1cc(-c2cccc(F)c2)sc1C(=O)N[C@H]1CCCNC1 [AZD7762] + CCNC(=O)c1noc(-c2cc(C(C)C)c(O)cc2O)c1-c1ccc(CN2CCOCC2)cc1 [Luminespib] (partner 0.01 µM)
relative viability (A-427; first compound 0.01 µM): 1.23 | relative viability (A-427; first compound 0.03162 µM): 0.967 | relative viability (A-427; first compound 0.1 µM): 0.815 | relative viability (A-427; first compound 0.3162 µM): 0.58 | relative viability (A-427; first compound 1 µM): 0.322 | relative viability (NCI-H1975; first compound 0.01 µM): 0.21 | relative viability (NCI-H1975; first compound 0.03162 µM): 0.201 | relative viability (NCI-H1975; first compound 0.1 µM): 0.0969 | relative viability (NCI-H1975; first compound 0.3162 µM): 0.173 | relative viability (NCI-H1975; first compound 1 µM): 0.127 | relative viability (NCI-H1563; first compound 0.01 µM): 0.524 | relative viability (NCI-H1563; first compound 0.03162 µM): 0.507 | relative viability (NCI-H1563; first compound 0.1 µM): 0.523 | relative viability (NCI-H1563; first compound 0.3162 µM): 0.505 | relative viability (NCI-H1563; first compound 1 µM): 0.475 | relative viability (NCI-H1755; first compound 0.01 µM): 0.498 | relative viability (NCI-H1755; first compound 0.03162 µM): 0.344 | relative viability (NCI-H1755; first compound 0.1 µM): 0.244 | relative viability (NCI-H1755; first compound 0.3162 µM): 0.225 | relative viability (NCI-H1755; first compound 1 µM): 0.275 | relative viability (NCI-H520; first compound 0.01 µM): 0.208 | relative viability (NCI-H520; first compound 0.03162 µM): 0.191 | relative viability (NCI-H520; first compound 0.1 µM): 0.238 | relative viability (NCI-H520; first compound 0.3162 µM): 0.254 | relative viability (NCI-H520; first compound 1 µM): 0.234 | relative viability (ChaGo-K-1; first compound 0.01 µM): 0.601 | relative viability (ChaGo-K-1; first compound 0.03162 µM): 0.578 | relative viability (ChaGo-K-1; first compound 0.1 µM): 0.692 | relative viability (ChaGo-K-1; first compound 0.3162 µM): 0.513 | relative viability (ChaGo-K-1; first compound 1 µM): 0.354 | relative viability (NCI-H1734; first compound 0.01 µM): 0.219 | relative viability (NCI-H1734; first compound 0.03162 µM): 0.219 | relative viability (NCI-H1734; first compound 0.1 µM): 0.146 | relative viability (NCI-H1734; first compound 0.3162 µM): 0.162 | relative viability (NCI-H1734; first compound 1 µM): 0.157 | relative viability (NCI-H2170; first compound 0.01 µM): 0.644 | relative viability (NCI-H2170; first compound 0.03162 µM): 0.666 | relative viability (NCI-H2170; first compound 0.1 µM): 0.71 | relative viability (NCI-H2170; first compound 0.3162 µM): 0.833 | relative viability (NCI-H2170; first compound 1 µM): 0.724 | relative viability (NCI-H23; first compound 0.01 µM): 0.226 | relative viability (NCI-H23; first compound 0.03162 µM): 0.189 | relative viability (NCI-H23; first compound 0.1 µM): 0.194 | relative viability (NCI-H23; first compound 0.3162 µM): 0.206 | relative viability (NCI-H23; first compound 1 µM): 0.194 | relative viability (NCI-H1666; first compound 0.01 µM): 1.11 | relative viability (NCI-H1666; first compound 0.03162 µM): 1.07 | relative viability (NCI-H1666; first compound 0.1 µM): 1.18 | relative viability (NCI-H1666; first compound 0.3162 µM): 1.03 | relative viability (NCI-H1666; first compound 1 µM): 0.97 | relative viability (EKVX; first compound 0.01 µM): 0.827 | relative viability (EKVX; first compound 0.03162 µM): 0.88 | relative viability (EKVX; first compound 0.1 µM): 0.826 | relative viability (EKVX; first compound 0.3162 µM): 0.82 | relative viability (EKVX; first compound 1 µM): 0.65 | relative viability (EMC-BAC-2; first compound 0.01 µM): 1.23 | relative viability (EMC-BAC-2; first compound 0.03162 µM): 1.16 | relative viability (EMC-BAC-2; first compound 0.1 µM): 1.19 | relative viability (EMC-BAC-2; first compound 0.3162 µM): 1.23 | relative viability (EMC-BAC-2; first compound 1 µM): 1.04 | relative viability (PC-3 [JPC-3]; first compound 0.01 µM): 0.735 | relative viability (PC-3 [JPC-3]; first compound 0.03162 µM): 0.67 | relative viability (PC-3 [JPC-3]; first compound 0.1 µM): 0.702 | relative viability (PC-3 [JPC-3]; first compound 0.3162 µM): 0.713 | relative viability (PC-3 [JPC-3]; first compound 1 µM): 0.673 | relative viability (SK-MES-1; first compound 0.01 µM): 1.08 | relative viability (SK-MES-1; first compound 0.03162 µM): 0.715 | relative viability (SK-MES-1; first compound 0.1 µM): 0.38 | relative viability (SK-MES-1; first compound 0.3162 µM): 0.19 | relative viability (SK-MES-1; first compound 1 µM): 0.175 | relative viability (LK-2; first compound 0.01 µM): 0.198 | relative viability (LK-2; first compound 0.03162 µM): 0.155 | relative viability (LK-2; first compound 0.1 µM): 0.215 | relative viability (LK-2; first compound 0.3162 µM): 0.164 | relative viability (LK-2; first compound 1 µM): 0.167 | relative viability (NCI-H441; first compound 0.01 µM): 0.402 | relative viability (NCI-H441; first compound 0.03162 µM): 0.489 | relative viability (NCI-H441; first compound 0.1 µM): 0.285 | relative viability (NCI-H441; first compound 0.3162 µM): 0.436 | relative viability (NCI-H441; first compound 1 µM): 0.212 | relative viability (SW 900; first compound 0.01 µM): 0.182 | relative viability (SW 900; first compound 0.03162 µM): 0.18 | relative viability (SW 900; first compound 0.1 µM): 0.201 | relative viability (SW 900; first compound 0.3162 µM): 0.159 | relative viability (SW 900; first compound 1 µM): 0.146 | relative viability (NCI-H1792; first compound 0.01 µM): 0.586 | relative viability (NCI-H1792; first compound 0.03162 µM): 0.472 | relative viability (NCI-H1792; first compound 0.1 µM): 0.392 | relative viability (NCI-H1792; first compound 0.3162 µM): 0.484 | relative viability (NCI-H1792; first compound 1 µM): 0.481 | relative viability (LOU-NH91; first compound 0.01 µM): 0.302 | relative viability (LOU-NH91; first compound 0.03162 µM): 0.317 | relative viability (LOU-NH91; first compound 0.1 µM): 0.403 | relative viability (LOU-NH91; first compound 0.3162 µM): 0.309 | relative viability (LOU-NH91; first compound 1 µM): 0.379 | relative viability (COR-L 105; first compound 0.01 µM): 0.743 | relative viability (COR-L 105; first compound 0.03162 µM): 0.585 | relative viability (COR-L 105; first compound 0.1 µM): 0.696 | relative viability (COR-L 105; first compound 0.3162 µM): 0.648 | relative viability (COR-L 105; first compound 1 µM): 0.401 | relative viability (NCI-H596; first compound 0.01 µM): 0.985 | relative viability (NCI-H596; first compound 0.03162 µM): 1.02 | relative viability (NCI-H596; first compound 0.1 µM): 0.999 | relative viability (NCI-H596; first compound 0.3162 µM): 1.07 | relative viability (NCI-H596; first compound 1 µM): 1.03 | relative viability (H3255; first compound 0.01 µM): 1.02 | relative viability (H3255; first compound 0.03162 µM): 0.982 | relative viability (H3255; first compound 0.1 µM): 0.975 | relative viability (H3255; first compound 0.3162 µM): 0.913 | relative viability (H3255; first compound 1 µM): 0.962
